Results published in publication PMC8160438, “A Novel Heptapeptide, GPPGPAG Transfers to the Brain, and Ameliorates Memory Dysfunction and Dendritic Atrophy in Alzheimer’s Disease Model Mice” (Frontiers in Pharmacology, 2021).
No end group written: not given here.

Assay: Cerebral cortex level after oral administration (brain penetration), LC-MS
Assay type: in vivo, mouse
Experimental: Bioavailability and brain penetration of GPPGPAG was performed as previously described ([Yang et al., 2017]). GPPGPAG (500 mg) was dissolved in 750 μL of physiological saline. […] The mice were euthanized at 10, 60, and 180 min after administration. Blood was collected and centrifuged at 10,000 g and 4°C for 10 min to yield plasma. Plasma aliquots (200 μL) were extracted with methanol, dried, sonicated, and resolubilized in 50% methanol (100 μL). The cerebral cortex was also collected after complete saline perfusion for removing blood. The cortex was homogenized, extracted with methanol, dried, sonicated, and resolubilized in 50% methanol (100 µL). To calculate GPPGPAG concentration in the plasma and brain using liquid chromatography-mass spectrometry (LC-MS), a standard curve was generated by analyzing standard amounts of GPPGPAG solubilized in methanol at a dosage of 1, 5, and 10 μg/ml. A Thermo Scientific Accela high-performance LC (HPLC) system, interfaced with an LTQ Orbitrap XL hybrid Fourier Transform Mass Spectrometer (Thermo Fisher Scientific), was used to chemically profile GPPGPAG and the biosamples. The LC analysis was performed on a InertSustain AQ-C18 (4.6 mm ID × 50 mm, 5 μm, GL Sciences, Tokyo, Japan) held at 40°C with a flow rate of 200 μL/min 0.01% formic acid in water (a) and methanol (b) were used in the mobile phase, with the following linear elution gradient: 0–15 min, 10–90% b; 15–18 min, 90–10% b; 18–20 min, 10% b. The following electrospray interface (ESI) parameters were used: spray voltage, 4.5 kV; capillary voltage, […]; tube lens, 150 V; capillary temperature, 330°C; sheath gas flow rate, 50 units; aux gas flow rate, 10 units. […]
[…] (A) Total ion chromatogram (upper) and extracted ion current chromatogram (lower) of standard GPPGPAG (m/z = 552.2753) at 10 μg/ml for quantification of (B) and (C) data. […] In total ion chromatogram (upper) and extracted ion current chromatogram (lower) of m/z = 552.2753, no peaks were detected. […] In total ion chromatogram and extracted ion current chromatogram of m/z = 552.2753, peaks matching the retention time of GPPGPAG were detected. (D) Total ion chromatogram (upper) and extracted ion current chromatogram (lower) of standard GPPGPAG (m/z = 552.2716) at 10 μg/ml for quantification of (E) and (F) data. […] In total ion chromatogram (upper) and extracted ion current chromatogram (lower) of m/z = 552.2716, no peaks were detected. […] In total ion chromatogram and extracted ion current chromatogram of m/z = 552.2716, peaks matching the retention time of GPPGPAG were detected. Quantified amount of GPPGPAG in the plasma (G) and cerebral cortex (H) are shown. *p < 0.05, ****p < 0.0001 vs, saline 10 min, one-way ANOVA with post hoc Bonferroni’s test, mean ± standard error, n = 3 mice.

transferred amount in the brain (calculated for 10 mg/kg per orally from the cortex level at 500 mg/mouse): 0.598 pmol | tissue level at time at 3 h (cerebral cortex, po, 180 min after p.o. administration of 500 mg/mouse, ddY mice, female, LC-MS, mean of n = 3): 2750 ng/g | detection in the cerebral cortex (ddY mice, female, 8 weeks, 500 mg/mouse p.o. single dose, cortex after saline perfusion, LC-MS, n = 3): detected 10 min later
Substance: GPPGPAG [GPPGPAG]
detection in plasma and cerebral cortex (male mouse, 9 weeks old, p.o. administration, data not shown): similarly detected in the plasma and cerebral cortex
